Reference: ChEMBL document CHEMBL5465560, “Selectivity Literature for EUbOPEN Chemogenomic Library” (2024)

Key:
[1] = molecular target: Cyclin-dependent kinase 8 (Homo sapiens, UniProt P49336); conditions: at 10 µM
[2] = system: Epidermal growth factor receptor (Homo sapiens), P00533 [UNDEFINED MUTATION]; assay: Selectivity interaction (Ambit KINOMEscan and KiNATiv profiling in Jurkat cells) EUB0000090b EGFR; assay type: cell-based; conditions: at 1 µM
[3] = molecular target: T1, Phosphatidylinositol 5-phosphate 4-kinase type-2 gamma (Homo sapiens) (UniProt Q8TBX8); assay: Selectivity interaction (Ambit KINOMEscan and KiNATiv profiling in Jurkat cells) EUB0000090b PIP4K2C; assay type: cell-based; conditions: at 1 µM
T1 sequence (whole entry): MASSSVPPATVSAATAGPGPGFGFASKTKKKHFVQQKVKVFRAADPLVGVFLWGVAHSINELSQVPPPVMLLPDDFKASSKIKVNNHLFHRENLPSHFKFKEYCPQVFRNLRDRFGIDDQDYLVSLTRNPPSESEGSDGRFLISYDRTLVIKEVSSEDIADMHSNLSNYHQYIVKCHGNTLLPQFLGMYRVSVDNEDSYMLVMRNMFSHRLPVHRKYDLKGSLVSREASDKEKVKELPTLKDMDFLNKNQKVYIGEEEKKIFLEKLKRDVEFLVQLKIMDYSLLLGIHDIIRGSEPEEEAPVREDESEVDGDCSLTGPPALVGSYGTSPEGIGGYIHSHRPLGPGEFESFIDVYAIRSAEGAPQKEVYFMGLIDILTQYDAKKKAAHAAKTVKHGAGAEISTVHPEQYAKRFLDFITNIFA

[4] = molecular target: Tyrosine-protein kinase JAK2 (Homo sapiens, UniProt O60674); assay: Selectivity interaction (NanoBRET assay (HEK293T cells)) EUB0001559a JAK2; assay type: cell-based, HEK-293T
[5] = molecular target: T2, Serine/threonine-protein kinase 3 (Homo sapiens) (UniProt Q13188); assay: Selectivity interaction (KinomeScan (DiscoverX)) EUB0000655a STK3; conditions: at 10 µM
T2 sequence (whole entry): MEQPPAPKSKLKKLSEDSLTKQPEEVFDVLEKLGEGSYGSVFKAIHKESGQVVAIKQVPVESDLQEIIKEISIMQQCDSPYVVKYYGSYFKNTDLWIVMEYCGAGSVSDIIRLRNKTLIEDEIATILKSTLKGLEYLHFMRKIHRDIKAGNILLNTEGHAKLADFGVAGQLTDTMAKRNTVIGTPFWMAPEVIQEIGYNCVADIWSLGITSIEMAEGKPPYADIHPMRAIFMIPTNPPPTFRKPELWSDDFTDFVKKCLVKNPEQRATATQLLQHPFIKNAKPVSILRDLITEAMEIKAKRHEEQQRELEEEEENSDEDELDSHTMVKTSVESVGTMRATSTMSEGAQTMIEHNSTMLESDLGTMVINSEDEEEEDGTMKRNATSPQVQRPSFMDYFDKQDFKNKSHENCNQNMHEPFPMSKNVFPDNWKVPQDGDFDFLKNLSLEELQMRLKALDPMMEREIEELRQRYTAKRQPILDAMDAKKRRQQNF

[6] = molecular target: Serine/threonine-protein kinase VRK2 (Homo sapiens) (UniProt Q86Y07); assay: Selectivity interaction (KinomeScan (DiscoverX)) EUB0000607a VRK2; conditions: at 10 µM
[7] = molecular target: Protein-tyrosine kinase 2-beta (Homo sapiens) (UniProt Q14289); conditions: at 10 µM
[8] = molecular target: T3, Mitogen-activated protein kinase kinase kinase kinase 2 (Homo sapiens) (UniProt Q12851); assay: Selectivity interaction (ActivX KiNativ screen (kinase selectivity in THP-1 cell lysates)) EUB0000639a MAP4K2; assay type: subcellular; conditions: lysate, at 0.2 µM
T3 sequence (whole entry): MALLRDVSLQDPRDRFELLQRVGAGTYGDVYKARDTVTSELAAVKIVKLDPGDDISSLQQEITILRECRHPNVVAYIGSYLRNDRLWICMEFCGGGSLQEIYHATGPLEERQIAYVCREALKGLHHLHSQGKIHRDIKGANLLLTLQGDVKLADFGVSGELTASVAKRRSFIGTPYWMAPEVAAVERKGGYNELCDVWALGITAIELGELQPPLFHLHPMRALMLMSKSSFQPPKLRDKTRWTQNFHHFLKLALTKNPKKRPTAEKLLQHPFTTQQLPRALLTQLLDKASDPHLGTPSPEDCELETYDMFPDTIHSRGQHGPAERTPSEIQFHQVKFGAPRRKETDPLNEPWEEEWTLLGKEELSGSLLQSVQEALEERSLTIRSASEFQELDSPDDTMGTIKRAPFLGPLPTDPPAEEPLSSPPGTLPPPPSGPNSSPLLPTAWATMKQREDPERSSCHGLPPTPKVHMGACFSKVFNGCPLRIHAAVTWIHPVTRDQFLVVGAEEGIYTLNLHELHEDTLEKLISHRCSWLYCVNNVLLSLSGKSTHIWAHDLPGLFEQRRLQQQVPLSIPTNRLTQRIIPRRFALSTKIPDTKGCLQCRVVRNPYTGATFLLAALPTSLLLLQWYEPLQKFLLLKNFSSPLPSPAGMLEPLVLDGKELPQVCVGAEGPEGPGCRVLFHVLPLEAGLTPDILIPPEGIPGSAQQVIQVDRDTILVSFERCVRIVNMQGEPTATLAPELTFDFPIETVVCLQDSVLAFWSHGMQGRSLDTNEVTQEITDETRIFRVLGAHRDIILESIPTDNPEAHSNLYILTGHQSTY

[9] = molecular target: Interferon-induced, double-stranded RNA-activated protein kinase (Homo sapiens) (UniProt P19525); assay: Selectivity interaction (ActivX KiNativ screen (kinase selectivity in THP-1 cell lysates)) EUB0000639a EIF2AK2; assay type: subcellular; conditions: lysate, at 0.01 µM
Chain of Interferon-induced, double-stranded RNA-activated protein kinase (Homo sapiens) (P19525 whole entry): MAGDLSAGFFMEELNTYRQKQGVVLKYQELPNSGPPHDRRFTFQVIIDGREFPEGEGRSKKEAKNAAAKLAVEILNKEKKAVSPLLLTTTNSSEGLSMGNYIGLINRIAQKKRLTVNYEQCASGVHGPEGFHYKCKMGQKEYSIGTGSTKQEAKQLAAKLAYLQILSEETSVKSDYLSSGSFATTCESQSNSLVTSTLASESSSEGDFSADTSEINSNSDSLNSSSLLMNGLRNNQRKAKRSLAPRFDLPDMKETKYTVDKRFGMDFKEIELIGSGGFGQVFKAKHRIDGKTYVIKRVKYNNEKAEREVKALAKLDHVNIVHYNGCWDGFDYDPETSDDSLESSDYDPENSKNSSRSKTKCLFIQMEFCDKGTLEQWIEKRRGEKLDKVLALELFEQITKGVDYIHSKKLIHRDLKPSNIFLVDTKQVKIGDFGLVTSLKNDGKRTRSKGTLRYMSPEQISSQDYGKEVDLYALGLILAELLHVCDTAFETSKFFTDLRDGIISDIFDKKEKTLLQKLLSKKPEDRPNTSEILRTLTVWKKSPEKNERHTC

[10] = molecular target: Ribosomal protein S6 kinase alpha-1 (Homo sapiens, UniProt Q15418); assay: Selectivity interaction (ActivX KiNativ screen (kinase selectivity in THP-1 cell lysates)) EUB0000639a RPS6KA1; assay type: subcellular; conditions: lysate, at 5 µM
SRSF protein kinase 1 = SRSF protein kinase 1 (Homo sapiens, UniProt Q96SB4); assay: Selectivity interaction (ProQinase) EUB0000171b SRPK1
Chain of SRSF protein kinase 1 (Q96SB4 whole entry): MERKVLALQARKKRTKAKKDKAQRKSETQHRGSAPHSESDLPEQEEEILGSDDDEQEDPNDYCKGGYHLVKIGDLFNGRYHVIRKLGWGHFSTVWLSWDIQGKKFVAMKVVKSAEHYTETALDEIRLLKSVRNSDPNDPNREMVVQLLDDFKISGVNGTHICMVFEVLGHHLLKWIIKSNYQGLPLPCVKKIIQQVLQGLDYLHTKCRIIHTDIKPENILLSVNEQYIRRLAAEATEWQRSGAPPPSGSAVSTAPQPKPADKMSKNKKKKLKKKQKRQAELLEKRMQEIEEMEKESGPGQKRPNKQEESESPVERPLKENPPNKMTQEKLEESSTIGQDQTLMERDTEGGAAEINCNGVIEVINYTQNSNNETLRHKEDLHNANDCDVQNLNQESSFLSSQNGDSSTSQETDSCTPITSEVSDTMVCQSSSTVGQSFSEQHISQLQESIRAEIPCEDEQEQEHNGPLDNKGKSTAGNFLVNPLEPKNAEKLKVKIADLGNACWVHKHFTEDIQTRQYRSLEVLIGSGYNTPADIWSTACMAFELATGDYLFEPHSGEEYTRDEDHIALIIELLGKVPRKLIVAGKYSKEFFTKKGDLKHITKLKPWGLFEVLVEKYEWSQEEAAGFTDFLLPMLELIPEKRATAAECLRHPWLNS

[11] = molecular target: Interleukin-1 receptor-associated kinase 1 (Homo sapiens) (UniProt P51617); assay: Selectivity interaction (KinomeScan (DiscoverX)) EUB0001049a IRAK1; conditions: at 1 µM
[12] = molecular target: Serine/threonine-protein kinase Nek4 (Homo sapiens) (UniProt P51957); assay: Selectivity interaction (KinomeScan (DiscoverX)) EUB0000666a NEK4; conditions: at 10 µM
Chain of Serine/threonine-protein kinase Nek4 (Homo sapiens) (P51957 whole entry, looked up): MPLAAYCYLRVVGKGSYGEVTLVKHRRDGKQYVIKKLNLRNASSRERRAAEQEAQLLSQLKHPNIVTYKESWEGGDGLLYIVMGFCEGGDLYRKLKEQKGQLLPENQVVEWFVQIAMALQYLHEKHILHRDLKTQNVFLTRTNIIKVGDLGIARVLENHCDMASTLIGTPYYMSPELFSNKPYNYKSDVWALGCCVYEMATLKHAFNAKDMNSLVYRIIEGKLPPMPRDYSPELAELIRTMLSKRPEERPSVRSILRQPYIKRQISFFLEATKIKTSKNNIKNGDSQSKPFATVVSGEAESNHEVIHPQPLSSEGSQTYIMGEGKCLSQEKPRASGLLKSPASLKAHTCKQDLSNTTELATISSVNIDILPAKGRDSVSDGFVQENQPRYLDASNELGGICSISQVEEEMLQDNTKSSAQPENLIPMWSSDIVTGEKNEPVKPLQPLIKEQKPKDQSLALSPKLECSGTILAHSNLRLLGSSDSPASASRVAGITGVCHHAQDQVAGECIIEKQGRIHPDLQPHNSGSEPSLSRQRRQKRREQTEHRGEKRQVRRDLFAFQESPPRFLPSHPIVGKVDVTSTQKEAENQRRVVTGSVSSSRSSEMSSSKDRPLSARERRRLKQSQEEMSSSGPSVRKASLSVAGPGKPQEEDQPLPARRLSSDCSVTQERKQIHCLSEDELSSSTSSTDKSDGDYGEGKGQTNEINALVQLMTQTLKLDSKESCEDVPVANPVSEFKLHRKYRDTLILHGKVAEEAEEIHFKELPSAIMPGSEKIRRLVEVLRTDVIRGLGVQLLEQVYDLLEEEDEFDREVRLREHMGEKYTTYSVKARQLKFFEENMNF

[13] = molecular target: Insulin receptor-related protein (Homo sapiens) (UniProt P14616); assay: Selectivity interaction (Kinase screening (Nanosyn)) EUB0000604a INSRR
Chain of Insulin receptor-related protein (Homo sapiens) (P14616 27-742 limits assumed): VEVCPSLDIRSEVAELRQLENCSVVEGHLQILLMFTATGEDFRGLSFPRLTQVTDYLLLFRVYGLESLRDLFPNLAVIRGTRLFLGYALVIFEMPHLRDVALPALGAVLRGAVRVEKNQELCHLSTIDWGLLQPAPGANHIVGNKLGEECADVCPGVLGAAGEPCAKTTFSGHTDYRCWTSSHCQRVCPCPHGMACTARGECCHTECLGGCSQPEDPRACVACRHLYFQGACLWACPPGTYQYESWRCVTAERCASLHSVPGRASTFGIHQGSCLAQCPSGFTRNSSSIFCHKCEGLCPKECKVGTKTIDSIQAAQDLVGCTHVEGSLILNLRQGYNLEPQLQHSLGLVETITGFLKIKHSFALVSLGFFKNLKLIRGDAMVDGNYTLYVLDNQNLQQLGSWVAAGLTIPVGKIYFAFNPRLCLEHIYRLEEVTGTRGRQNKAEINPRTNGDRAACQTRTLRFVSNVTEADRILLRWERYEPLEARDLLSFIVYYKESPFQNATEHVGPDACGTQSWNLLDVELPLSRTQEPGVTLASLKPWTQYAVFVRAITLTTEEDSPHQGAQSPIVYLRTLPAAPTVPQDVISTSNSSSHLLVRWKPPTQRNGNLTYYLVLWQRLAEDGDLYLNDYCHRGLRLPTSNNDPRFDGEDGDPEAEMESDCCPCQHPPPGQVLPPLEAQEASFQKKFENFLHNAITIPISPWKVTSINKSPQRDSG
Chain of Insulin receptor-related protein (Homo sapiens) (P14616 747-1297 limits assumed): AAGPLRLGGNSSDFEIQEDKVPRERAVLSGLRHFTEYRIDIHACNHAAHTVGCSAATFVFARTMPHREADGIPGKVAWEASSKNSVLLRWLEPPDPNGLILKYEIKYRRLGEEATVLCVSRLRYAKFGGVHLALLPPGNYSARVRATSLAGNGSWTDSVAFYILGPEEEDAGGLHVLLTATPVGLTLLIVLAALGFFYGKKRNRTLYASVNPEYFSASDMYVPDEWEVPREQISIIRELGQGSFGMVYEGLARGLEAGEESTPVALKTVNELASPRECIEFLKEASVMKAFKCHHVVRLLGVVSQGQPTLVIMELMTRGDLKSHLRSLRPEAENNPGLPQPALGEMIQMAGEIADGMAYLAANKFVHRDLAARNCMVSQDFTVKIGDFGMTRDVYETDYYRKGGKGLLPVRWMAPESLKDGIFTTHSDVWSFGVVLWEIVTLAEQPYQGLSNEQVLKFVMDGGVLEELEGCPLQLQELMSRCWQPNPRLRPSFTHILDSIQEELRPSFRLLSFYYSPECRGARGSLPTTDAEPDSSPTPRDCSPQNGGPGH

Chain of Cyclin-dependent kinase 8 (P49336 whole entry): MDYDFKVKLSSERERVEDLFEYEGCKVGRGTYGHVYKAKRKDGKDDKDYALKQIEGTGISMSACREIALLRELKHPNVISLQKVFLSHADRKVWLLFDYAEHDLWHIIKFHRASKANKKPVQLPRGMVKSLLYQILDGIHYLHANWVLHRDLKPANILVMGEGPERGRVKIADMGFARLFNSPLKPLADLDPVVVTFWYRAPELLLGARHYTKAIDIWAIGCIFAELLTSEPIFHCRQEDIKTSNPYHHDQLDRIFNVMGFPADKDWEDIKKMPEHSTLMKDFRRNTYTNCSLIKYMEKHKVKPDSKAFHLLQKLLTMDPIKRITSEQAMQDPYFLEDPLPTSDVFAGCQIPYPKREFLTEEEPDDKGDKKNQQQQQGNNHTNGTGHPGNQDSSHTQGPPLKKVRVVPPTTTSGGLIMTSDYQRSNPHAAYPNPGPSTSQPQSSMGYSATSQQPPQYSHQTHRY
Chain of Epidermal growth factor receptor (Homo sapiens), P00533 [UNDEFINED MUTATION] (P00533 whole entry, looked up, change not shown): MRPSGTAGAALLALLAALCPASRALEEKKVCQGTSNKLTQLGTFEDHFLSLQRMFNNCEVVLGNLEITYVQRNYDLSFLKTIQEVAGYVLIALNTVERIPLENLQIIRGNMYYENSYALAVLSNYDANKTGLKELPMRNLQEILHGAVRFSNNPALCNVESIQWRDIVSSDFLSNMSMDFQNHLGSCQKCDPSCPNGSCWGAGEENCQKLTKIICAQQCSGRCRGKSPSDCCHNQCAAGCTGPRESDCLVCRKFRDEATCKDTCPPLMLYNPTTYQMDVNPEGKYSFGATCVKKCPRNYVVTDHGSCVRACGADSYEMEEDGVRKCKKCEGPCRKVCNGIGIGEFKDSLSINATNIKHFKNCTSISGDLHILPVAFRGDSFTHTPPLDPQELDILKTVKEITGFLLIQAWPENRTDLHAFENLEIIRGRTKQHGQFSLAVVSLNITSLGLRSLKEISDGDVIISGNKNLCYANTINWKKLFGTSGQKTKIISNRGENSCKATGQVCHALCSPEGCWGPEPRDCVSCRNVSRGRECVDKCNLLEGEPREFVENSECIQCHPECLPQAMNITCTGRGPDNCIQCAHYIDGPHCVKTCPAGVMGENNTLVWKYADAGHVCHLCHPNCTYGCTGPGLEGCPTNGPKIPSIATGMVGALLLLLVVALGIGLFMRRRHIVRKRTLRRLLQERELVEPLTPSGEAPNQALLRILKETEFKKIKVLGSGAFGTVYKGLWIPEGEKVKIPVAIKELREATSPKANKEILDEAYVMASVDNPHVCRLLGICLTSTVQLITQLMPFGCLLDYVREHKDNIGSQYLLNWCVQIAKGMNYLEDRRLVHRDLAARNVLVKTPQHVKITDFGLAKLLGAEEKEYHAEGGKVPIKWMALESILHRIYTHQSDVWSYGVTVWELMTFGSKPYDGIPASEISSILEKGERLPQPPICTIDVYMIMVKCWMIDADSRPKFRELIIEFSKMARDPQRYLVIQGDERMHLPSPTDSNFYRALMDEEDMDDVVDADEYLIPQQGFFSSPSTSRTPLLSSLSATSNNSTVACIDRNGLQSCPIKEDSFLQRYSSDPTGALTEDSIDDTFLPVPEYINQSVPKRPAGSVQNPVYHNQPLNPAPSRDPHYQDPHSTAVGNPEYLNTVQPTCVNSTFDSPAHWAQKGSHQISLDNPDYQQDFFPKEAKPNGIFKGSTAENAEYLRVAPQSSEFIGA

`CCN(CC)CCCCNc1ncc2cc(-c3cc(OC)cc(OC)c3)c(NC(=O)NC(C)(C)C)nc2n1` was tested. Which % of control [1] did it give?
The % of control was 100%.

What does the source list for `CN(C)C/C=C/C(=O)Nc1ccc(C(=O)N2CCCC(Nc3ncc(Cl)c(-c4c[nH]c5ccccc45)n3)C2)cc1` (stereo not given)?
% of control [2]: 94%; % of control [3]: 91%

Which EC50 [4] does the source give for `CN(C(=O)c1cnn2cccnc12)c1cc2c(cc1N1CCOCC1)C(=O)N(C[C@@H](F)C(C)(C)O)C2` here?
The EC50 was over 50 µM.

For `CN(C)CCOc1ccc(-c2nc(-c3ccncc3)c(-c3ccc4c(c3)CC/C4=N\O)[nH]2)cc1`, which % of control [5] is on record?
Its % of control is 88%.

For `CNC(=O)Nc1ccc(-c2nc(N3CC4CCC(C3)O4)c3cnn(C4CCC5(CC4)OCCO5)c3n2)cc1`, which % of control [6] is on record?
Its % of control is 100%.

How did the % of control [7] turn out when `Cc1cc([C@@H](C)Nc2ccccc2C(=O)O)c2nc(N3CCOCC3)cc(=O)n2c1` [AZD-6482] was run?
Its % of control is 100%.

`CC[C@@H]1[C@H](F)C(=O)N[C@@H]1COc1nccc2cc(C(N)=O)c(OC)cc12` [ZIMLOVISERTIB] was tested. Which % of inhibition [8] did it give?
Its % of inhibition is 10.3%.

What about the % of inhibition [9] of the same molecule?
The % of inhibition was -1.7%.

And the % of inhibition [10]?
The % of inhibition was 0.2%.

Which % of control (SRSF protein kinase 1; at 1 µM) does the source give for `C=CC(=O)Nc1cccc(C(=O)Nc2ccc(Nc3cc(-c4[nH]c(SC)nc4C)ccn3)cc2)c1` here?
The % of control was 99%.

And the % of control (SRSF protein kinase 1; at 5 µM)?
The % of control was 86%.

`COc1cc(Nc2nc(C)cc(-c3cnn4nc(OC)ccc34)n2)cc(C(F)(F)F)c1` was tested. Which % of control [11] did it give?
Its % of control is 91%.

With `O=C(NOC[C@H](O)CO)c1ccc(F)c(F)c1Nc1ccc(I)cc1F` as the molecule, how does the % of control [12] read?
The % of control was 78%.

Which % of inhibition [13] does the source give for `Cc1cnc(Nc2ccc(F)cc2Cl)nc1-c1c[nH]c(C(=O)N[C@H](CO)c2cccc(Cl)c2)c1` here?
Its % of inhibition is 0%.
